Measurements published in the NIST ThermoML archive (doi:10.1016/j.tca.2015.10.015).
± gives the expanded uncertainty stated by the source.

Key:
[1] = Crystal; DTA
[2] = Molar enthalpy of transition or fusion; details: Crystal; DSC

Structure (SMILES) | Normal melting temperature [1] [°C] | Molar enthalpy of transition or fusion [2] [kcal/mol]
CCCCCCCCCCCCOC(=O)CCC(=O)O [butanedioic acid, monododecyl ester] | 45.80 ± 2.1 | 12.7 ± 0.335
CCCCCCCCCCCCCCCCCCCCCCOC(=O)/C=C\C(=O)O [maleic acid monodocosyl ester] | 82.00 ± 5 | 20.8 ± 0.55
CCCCCCCCCCCCOC(=O)/C=C\C(=O)O [maleic acid monododecyl ester] | 51.30 ± 4 | 12.4 ± 0.335
CCCCCCCCCCCCCCCCOC(=O)/C=C\C(=O)O [maleic acid monohexadecyl ester] | 71.80 ± 3 | 17.1 ± 0.454

Next, values leading:

Normal melting temperature [1] [°C] | Molar enthalpy of transition or fusion [2] [kcal/mol] | Structure (SMILES)
31.10 ± 3 | 7.93 ± 0.215 | CCCCCCCCOC(=O)/C=C\C(=O)O [maleic acid monooctyl ester]
73.60 ± 1.1 | 22.2 ± 0.574 | CCCCCCCCCCCCCCCCCCCCCCOC(=O)CCC(=O)O [succinic acid monodocosyl ester]
64.20 ± 1.1 | 15.8 ± 0.43 | CCCCCCCCCCCCCCCCOC(=O)CCC(=O)O [succinic acid monohexadecyl ester]
36.50 ± 1.1 | 9.99 ± 0.263 | CCCCCCCCOC(=O)CCC(=O)O [succinic acid monooctyl ester]
